Measurements from patent US12152048B2, “Nitroxoline prodrug and use thereof” (Jiangsu Yahong Meditech Co., Ltd., priority 2018, dated 2024).
Values after ≈ are worked out from the molar mass of the structure shown.

What was measured:
[1] = Stability in human plasma
[2] = Stability in mouse liver microsome; format: in vitro ADME; settings: 2 μM, 37° C., 30 minutes
[3] = Stability in human liver microsome; settings: 2 μM, 37° C., 30 minutes
[4] = Stability in dog liver microsome; settings: 2 μM, 37° C., 30 minutes
[5] = Stability in plasma, overall conclusion (species not stated); settings: conclusion in words
[6] = Stability in rat plasma
From the text: (§1) Experimental instruments: thermostatic shaker (SHA-B, Guohua Electric Appliance Co., Ltd.); centrifuge (5810R, Eppendorf); mass spectrometry (AP4000, Applied Biosystems, USA); liquid chromatography (LC-30AD, Shimadzu); sample injector (CTC Analytics AG System, CTC).
(§2) Test animals: plasma of human (batch number: BRH1343165), rat (batch number: RAT336728), mouse (batch number: MSE280000), dog (batch number: BGL99137) and monkey (batch number: PH-Monkey-20180821) are purchased from Shanghai Sixin Biological Technology Co., Ltd.
(§3) Experimental process: the compound of the present invention was dissolved in an organic solvent to obtain a 1 mM working solution. 3 μL of the working solution were added to 597 μL of pre-incubated human or rat plasma and mixed well. 50 μL of the solution were immediately taken out as the 0 minute sample. The remaining sample was incubated at 37° C., and 50 μL of sample were taken out at 15, 30, 60 and 120 minutes respectively. All the samples taken out were immediately processed to precipitate protein, and centrifuged to obtain a supermate for the determination of the compound concentration by LC/MS/MS.

[7] = Stability in rat liver microsome; settings: 2 μM, 37° C., 30 minutes
[8] = Determination of water solubility in phosphate buffer; format: physicochemical; settings: aqueous buffer, thermodynamic from solid; phosphate buffer pH 7.4, room temperature, 24 hours
How it was run: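 Thermodynamic solubility: compound concentration measured by LC/MS/MS in the vacuum filtrate after 24 h shaking at room temperature of 2 mg powder in 500 μL phosphate buffer at pH 1.2, 4.5, 6.8 or 7.4.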

[9] = Stability in dog plasma; format: in vitro ADME
From the text: as §1, §2, §3

- Percentage of the compound remaining in plasma ([1]; 0 minute): 100.0%
- Percentage of the compound remaining in plasma ([1]; 37° C., 15 minutes): 91.3%
- Percentage of the compound remaining in plasma ([1]; 37° C., 30 minutes): 94.5%
- Percentage of the compound remaining in plasma ([1]; 37° C., 60 minutes): 92.1%
- Percentage of the compound remaining in plasma ([1]; 37° C., 120 minutes): 68.7%
- Percentage of the compound remaining in mouse liver microsome ([2]; with coenzyme): 2.01%
- Percentage of the compound remaining in mouse liver microsome ([2]; without coenzyme): 90.39%
- Percentage of the compound remaining in human liver microsome ([3]; with coenzyme): 61.24%
- Percentage of the compound remaining in human liver microsome ([3]; without coenzyme): 81.91%
- Percentage of the compound remaining in dog liver microsome ([4]; with coenzyme): 70.73%
- Percentage of the compound remaining in dog liver microsome ([4]; without coenzyme): 84.65%
- stability in plasma [5]: high stability
- Percentage of the compound remaining in plasma ([6]; 0 minute): 100.0%
- Percentage of the compound remaining in plasma ([6]; 37° C., 15 minutes): 48.9%
- Percentage of the compound remaining in plasma ([6]; 37° C., 30 minutes): 24.7%
- Percentage of the compound remaining in plasma ([6]; 37° C., 60 minutes): 5.0%
- Percentage of the compound remaining in plasma ([6]; 37° C., 120 minutes): 0.3%
- Percentage of the compound remaining in rat liver microsome ([7]; with coenzyme): 8.58%
- Percentage of the compound remaining in rat liver microsome ([7]; without coenzyme): 52.76%
- solubility at 24 h [8]: 15.5 µg/mL (≈ 39.7 µM)
- Percentage of the compound remaining in plasma ([9]; 0 minute): 100.0%
- Percentage of the compound remaining in plasma ([9]; 37° C., 15 minutes): 99.6%
- Percentage of the compound remaining in plasma ([9]; 37° C., 30 minutes): 97.5%
- Percentage of the compound remaining in plasma ([9]; 37° C., 60 minutes): 83.3%
- Percentage of the compound remaining in plasma ([9]; 37° C., 120 minutes): 70.1%
Compound: CCC(C)C(NC(=O)OCOc1ccc([N+](=O)[O-])c2cccnc12)C(=O)OC (stereo not shown) [Compound 55, methyl 3-methyl-2-(((5-nitroquinolin-8-yloxy)methoxy)formamido)pentanoate]
